Patent US4409228A, “Andrexiant aminopiperidines intermediates thereto and drugs containing same” (Sanofi, priority 1979, dated 1983)
Structures can show the parent of a compound that is named as a salt. Where two headings read alike, the source gives them in different places.

Tests used:
Format in all cases: in vivo
[1] = Locomotor activity in the rat, oral (inhibition of spontaneous motility, photoelectric cell); details: for ED50 at 0.5 h / selectivity ratio: in vivo; for ED50 at 0.5 h: female rats, oral dose inhibiting spontaneous motility by 50%, pulses during 10 minutes, 30 minutes after treatment, read-out: C locom. act. inhibition ID50; for selectivity ratio: ratio locomotor ID50 / anorexiant ED50 (therapeutic index), read-out: C/B; for selectivity ratio / inhibition of locomotor activity (in words): oral; for inhibition of locomotor activity (in words): relative to anorexiant ED50
Protocol: The products were also assessed as a function of their action on the locomotor activity in the rat. To this end, female rats weighing about 200 g were used, to which the compounds were administered by the oral route. After 30 minutes, the treated animals were placed in a cage (80×80 cm) provided with a photoelectric cell for measuring the spontaneous movements, and the number of pulses transmitted to the cell for 10 minutes was recorded. The inhibition of the locomotor activity of each substance (6 to 10 animals per dose) was expressed as a percentage with respect to the controls.
the action on the locomotor activity, expressed as oral dose inhibiting by 50% the spontaneous motility, namely the number of pulses transmitted to the photoelectric cell during the 10 minutes (ID50, data C);

[2] = Acute toxicity, LD50 in the rat by the oral route; details: in vivo; for selectivity ratio: ratio acute toxicity LD50 / anorexiant ED50 (therapeutic index), read-out: A/B
Excerpt: (§1) the acute toxicity, expressed at LD50 in the rat by the oral route (data A);

[3] = Anorexiant activity, food consumption method in the rat, oral (ED50); details: for ED50: read-out: B anorexiant activity ED50; for anorexiant activity (in words): oral
Protocol: (§2) The anorexiant activity was assessed by the food consumption method in the rat. Female rats weighing 200 g were used, trained for 10 days to eat during a period of 4 hours and selected on the eighth day. After the tenth day, the randomized animals were divided into a "control group", treated solely with the carrier, and into several "treated groups". The treatment was effected by the intraperitoneal route 30 minutes before the presentation of food and the quantity of food consumed in the course of the first hour was then measured. The data in Table I indicate the percentage of inhibition of the food consumption of the animals treated with the compounds according to the present invention with respect to the controls.
The anorexiant activity by the oral route of a product according to the present invention, 4-amino-1-(6-chloro-2-pyridyl)piperidine in the form of mono hydrochloride (CM 57227, compound of Example 1), was tested in accordance with the food consumption method described hereinabove; as well known anorexiant product, fenfluramine, as well as 1-(6-chloro-2-pyridyl)piperazine in the form of monohydrochloride, described in U.S. Pat. No. 4,078,063, and 1-(6-chloro-2-pyrazinyl) piperazine in monohydrochloride form, described in British Pat. No. 1,492,528, were used as reference products.
the anorexiant activity, expressed as oral dose inhibiting by 50% the food consumption (ED50, data B);

male mice = test: Acute toxicity, zone of mortality, mice, intraperitoneal; details: i.p., 48 h observation, doses with lowest (at least 1 death) and highest mortality
Protocol: With respect to their degree of activity, the 4-amino-1-(2-pyridyl)piperidines of the present invention are sparingly toxic and present a good therapeutic index. In Table I hereinbelow, the acute toxicity is expressed in the form of "zone of mortality". 6 batches of male mice weighing about 20 g were used, in which were injected the compounds of the present invention, dissolved or suspended in carboxymethylcellulose, by the intraperitoneal route, at at least four doses for each batch of animals. […] The "mortality zone" is represented by the doses at which the lowest mortality (at least 1 death) and the highest are observed.

cerebral serotonin = test: Cerebral levels of serotonin after intraperitoneal administration in the rat; details: for Cerebral levels of serotonin % with respect to controls: 60 minutes before sacrifice
Protocol: Table III below summarises the cerebral levels of serotonin after intraperitoneal administration in the rat of a compound according to the present invention, 4-amino-1-(6-chloro-2-pyridyl) piperidine in monohydrochloride form (CM 57227, product of Example 1). Fenfluramine was used as reference product.
The animals were treated 60 minutes before sacrifice.

[4] = Anorexiant activity, food consumption method in the rat, intraperitoneal; details: female rats, i.p., food consumed in first hour, vs controls
Protocol: as §2

rat = test: Acute toxicity, LD50 in the rat by the oral route
Excerpt: as §1

SMILES	ED50 at 0.5 h [1] [mg/kg]	selectivity ratio [1]	inhibition of locomotor activity (in words) [1]	LD50 [2] [mg/kg]	selectivity ratio [2]	ED50 ([3]; Rattus norvegicus, po) [mg/kg]	Mortality zone (male mice) [mg/kg]	also measured
Clc1cncc(N2CCNCC2)n1 [1-(6-chloro-2-pyrazinyl)piperazine HCl, 1-(6-chloro-2-pyrazinyl) piperazine]	0.6	0.3	inhibit the locomotor activity at doses even lower than the anorexiant ED50	79.6	46.8	1.7		anorexiant activity (in words) ([3]; rat): very active as anorexiants
Clc1cccc(N2CCNCC2)n1 [1-(6-chloro-2-pyridyl)piperazine HCl, 1-(6-chloro-2-pyridyl)piperazine]	2.1	0.58	inhibit the locomotor activity at doses even lower than the anorexiant ED50	174	48.3	3.6		anorexiant activity (in words) ([3]; rat): very active as anorexiants
NC1CCN(c2cccc(Cl)n2)CC1 [CM 57227, 4-amino-1-(6-chloro-2-pyridyl) piperidine]	60	7.7		190	24.3		100 to 150	Cerebral levels of serotonin % with respect to controls (cerebral serotonin; 5 mg/kg i.p.): 105%; Cerebral levels of serotonin % with respect to controls (cerebral serotonin; 10 mg/kg i.p.): 120%; Food consumption % inhibition ([4]; 10 mg/kg): 70.8%; ED50 ([3]; rat, oral dose inhibiting food consumption by 50%): 7.8 mg/kg
COc1cccc(N2CCC(N)CC2)n1 [CM 57366, 4-amino-1-(6-methoxy-2-pyridyl) piperidine]							150 to 200	Food consumption % inhibition ([4]; 30 mg/kg): 67.0%
NC1CCN(c2cccc(Sc3ccccc3)n2)CC1 [CM 57369, 4-amino-1-(6-phenylthio-2-pyridyl)piperidine]							150 to 200	Food consumption % inhibition ([4]; 40 mg/kg): 95.2%
Cc1cccc(N2CCC(N)CC2)n1 [CM 57371, 4-amino-1-(6-methyl-2-pyridyl)piperidine]							175 to 225	Food consumption % inhibition ([4]; 40 mg/kg): 77.2%
NC1CCN(c2cccc(Br)n2)CC1 [CM 57373, 4-amino-1-(6-bromo-2-pyridyl) piperidine]							100 to 175	Food consumption % inhibition ([4]; 20 mg/kg): 89.8%
NC1CCN(c2cccc(OCC(F)(F)F)n2)CC1 [CM 57385, 4-amino-1-[6-(2,2,2-trifluoro)ethoxy-2-pyridyl] piperidine]							150 to 250	Food consumption % inhibition ([4]; 30 mg/kg): 78.2%
CCNC(C)Cc1cccc(C(F)(F)F)c1 (centres unmarked) [fenfluramine]	12	3	much greater inhibiting action on the locomotor activity		25.2	4		A Acute toxicity LD50 (rat): 100.9 mg/kg; therapeutic index A/B, comparison (in words) (rat): almost equal to that of the 4-amino-1-(6-chloro-2-pyridyl)piperidine of the present invention; Cerebral levels of serotonin % with respect to controls (cerebral serotonin; 3.75 mg/kg i.p., * significant: p < 0.01): 69%; Cerebral levels of serotonin % with respect to controls (cerebral serotonin; 7.5 mg/kg i.p., * significant: p < 0.01): 51%; Cerebral levels of serotonin % with respect to controls (cerebral serotonin; 15 mg/kg i.p., * significant: p < 0.01): 42%; cerebral levels of serotonin (in words) (cerebral serotonin; i.p., anorexiant or equivalent doses): causes a significant reduction in cerebral serotonin
